Among the data in patent publication US20110183946A1, “Complexes Comprising alpha2-Adrenergic Receptor Agonists and Methods of Providing Neuroprotection or Treating or Inhibiting Progression of Glaucoma” (priority 2007, published 2011) are solubility, pH and Solubility in water values, retold here.

Data set [1] is described as follows: Solubility of various brimonidine complexes in water at the resulting pH. It is filed as physicochemical. The note with it: for pH: resulting pH of the aqueous solubility sample. Here is the method: In this experiment, various complexes comprising Brimonidine and counterions of one of the following acids were prepared: pamoic acid, capric acid, sebacic acid, hippuric acid, naproxen, 1-hydroxy-2-naphthoic acid, palmitic acid, and stearic acid. Variations of the procedure described in the following disclosure may be made within the skill of a person of ordinary skill in the art without departing from the scope of the present invention. Brimonidine free base in a preselected solvent was heated to about 60-70° C. The organic acid in another portion of the solvent was added into the heated mixture or was included in the original mixture before heating. The heating of the combined mixture was continued for an additional period, which was not critical. In certain embodiments, an antisolvent was added to the combined mixture, preferably at a lower temperature, to effect a precipitation of the complex of brimonidine and the counterion. It may be advantageous to remove a portion of the solvent and antisolvent to assist the precipitation. In certain other embodiments, the heated combined mixture was cooled down to a lower temperature, such as room temperature (or below) to effect the precipitation of the complex of brimonidine and the counterion. The precipitate was then filtered and dried to yield the final complex.

Data set [2] is described as follows: physchem. As for the experimental part:
Brimonidine and pamoic acid, at a molar ratio of 1:1, were mixed and dispersed in N-methylpyrrolidone (“NMP”). The solution of brimonidine and pamoic acid in NMP was heated while stirring to dissolve brimonidine (the final temperature, typically less than 70° C., was chosen so as not to lose significant amount of solvent). […] The precipitation was allow to proceed; for example, for several hours or overnight. […] Other solvents, known to people skilled in the art, may be used for a compound that provides the counterion to the α2-adrenergic agonist, as appropriate.

The conditions of data set [3]: see US Patent Application Publication 2005/0244463 A1; cited from earlier work.

In brackets after ≈: the same amount, converted by molar mass. Read-outs that look alike come from different tables or passages of the source.

Turning to `Brc1c(NC2=NCCN2)ccc2nccnc12` [brimonidine free base, 5-bromo-N-(2-imidazolin-2-yl)-6-quinoxalinamine], in data set [1] (in water at the resulting pH (pH in column 1 of the same row)), the solubility was 48 to 200 µg/mL (≈ 164 to 685 µM). Moreover, the pH in data set [1] is given as 8.1-8.9. Besides, the concentration in solution in data set [2] (water, thermodynamic from solid) (solubility at 11 days) came to 215 µg/mL (≈ 736 µM). For the molecule `Brc1c(NC2=NCCN2)ccc2nccnc12.O=C(O)c1ccc2ccccc2c1O` [1-hydroxy-2-naphtoate], the pH in data set [1] is 6.8. In the case of `Brc1c(NC2=NCCN2)ccc2nccnc12.O=C(O)c1cc2ccccc2c(Cc2c(O)c(C(=O)O)cc3ccccc23)c1O` [brimonidine pamoate], the pH in data set [1] is 7.2-7.5. In data set [2], the Solubility in water worked out at 207 µg/mL. In the case of brimonidine tartrate, the Solubility in water entry in data set [3] is “about 34 mg/ml”; in data set [2] (water, after 11 days on a twist shaker), 41588 µg/mL.

Consider naphthoate, for which the pH in data set [1] is 5.3-5.4.
